According to PubChem BioAssay AID248 (DTP/NCI, 2004):
“And” between values parts separate entries of the source, which are not always exact repeats. Identical values can stand only once. Toxic doses and inconclusive results are not listed.

System: L1210 leukemia ip in BDF1 mice, survival T/C
Test: NCI In Vivo Anticancer Drug Screen. Data for tumor model L1210 Leukemia (intraperitoneal) in B6D2F1 (BDF1) mice
Conditions: endpoint: mean survival time, higher = longer survival
Procedure, shortened: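 Tumor was transplanted into mice, which were then dosed with test compound or vehicle alone. Survival was recorded for each group, and the treated figure was expressed relative to the control figure.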

[1] = dose: 100.0 mg/kg/injection, schedule: Q01DX001 (ip), vehicle: carboxymethylcellulose (CMC)
[2] = dose: 200.0 mg/kg/injection, schedule: Q01DX001 (ip), vehicle: carboxymethylcellulose (CMC)
[3] = dose: 400.0 mg/kg/injection, schedule: Q01DX001 (ip), vehicle: carboxymethylcellulose (CMC)
[4] = dose: 100.0 mg/kg/injection, schedule: Q01DX009 (ip), vehicle: saline

O=C(O)CNCCN1CC(=O)N(c2ccccc2)C1=S
T/C [1]: 93 % of control
T/C (dose: 100.0 mg/kg/injection, schedule: Q01DX009 (ip), vehicle: carboxymethylcellulose (CMC)): 94 % of control and 95 % of control
T/C (dose: 100.0 mg/kg/injection, schedule: Q04DX002 (ip), vehicle: carboxymethylcellulose (CMC)): 97 % of control and 98 % of control
T/C (dose: 100.0 mg/kg/injection, schedule: Q04DX003 (ip), vehicle: carboxymethylcellulose (CMC)): 98 % of control
T/C [2]: 98 % of control
T/C (dose: 200.0 mg/kg/injection, schedule: Q01DX009 (ip), vehicle: carboxymethylcellulose (CMC)): 94 % of control and 90 % of control
T/C (dose: 200.0 mg/kg/injection, schedule: Q04DX002 (ip), vehicle: carboxymethylcellulose (CMC)): 91 % of control
T/C (dose: 200.0 mg/kg/injection, schedule: Q04DX003 (ip), vehicle: carboxymethylcellulose (CMC)): 93 % of control
T/C [3]: 95 % of control
T/C (dose: 400.0 mg/kg/injection, schedule: Q01DX009 (ip), vehicle: carboxymethylcellulose (CMC)): 86 % of control
T/C (dose: 400.0 mg/kg/injection, schedule: Q04DX002 (ip), vehicle: carboxymethylcellulose (CMC)): 97 % of control and 98 % of control
T/C (dose: 400.0 mg/kg/injection, schedule: Q04DX003 (ip), vehicle: carboxymethylcellulose (CMC)): 89 % of control

CCN(CC)C(=S)[S][Sn]([Cl])([c]1ccccc1)[c]1ccccc1
T/C (dose: 5.0 mg/kg/injection, schedule: Q01DX001 (ip), vehicle: other): 102 % of control
T/C (dose: 10.0 mg/kg/injection, schedule: Q01DX001 (ip), vehicle: other): 104 % of control
T/C (dose: 20.0 mg/kg/injection, schedule: Q01DX001 (ip), vehicle: other): 102 % of control
T/C (dose: 40.0 mg/kg/injection, schedule: Q01DX001 (ip), vehicle: other): 102 % of control
T/C (dose: 80.0 mg/kg/injection, schedule: Q01DX001 (ip), vehicle: other): 104 % of control

CCC(C)C(CCN(CC)CC)(CNC(=O)CN(CC)CC)c1cccc2ccccc12 (stereo not drawn)
T/C [4]: 97 % of control

CC(=O)Nc1nc2ncc(C=Nc3cncnc3)nc2c(=O)[nH]1
T/C (dose: 100.0 mg/kg/injection, schedule: Q01DX001 (ip), vehicle: alkali diluted with saline): 108 % of control
T/C (dose: 200.0 mg/kg/injection, schedule: Q01DX001 (ip), vehicle: alkali diluted with saline): 94 % of control
T/C (dose: 400.0 mg/kg/injection, schedule: Q01DX001 (ip), vehicle: alkali diluted with saline): 92 % of control

CN(C)c1ccc(-c2nc3ccccn3c2N)cc1
T/C (dose: 3.13 mg/kg/injection, schedule: Q01DX009 (ip), vehicle: saline): 95 % of control
T/C (dose: 6.25 mg/kg/injection, schedule: Q01DX009 (ip), vehicle: saline): 92 % of control and 101 % of control
T/C (dose: 12.5 mg/kg/injection, schedule: Q01DX009 (ip), vehicle: saline): 100 % of control and 114 % of control

CCOC(C(=O)O)(c1ccccc1)c1ccccc1
T/C (dose: 100.0 mg/kg/injection, schedule: Q04DX002 (ip), vehicle: Klucel (hydroxypropylcellulose) (HPC)): 97 % of control
T/C (dose: 200.0 mg/kg/injection, schedule: Q04DX002 (ip), vehicle: Klucel (hydroxypropylcellulose) (HPC)): 97 % of control

COc1ccccc1NC(=O)O/N=C/c1ccccn1
T/C (dose: 100.0 mg/kg/injection, schedule: Q04DX003 (ip), vehicle: other): 99 % of control
T/C (dose: 200.0 mg/kg/injection, schedule: Q04DX003 (ip), vehicle: other): 90 % of control
T/C (dose: 400.0 mg/kg/injection, schedule: Q04DX003 (ip), vehicle: other): 103 % of control

CCCCOCC(=O)OCCCC
T/C [4]: 103 % of control
T/C (dose: 100.0 mg/kg/injection, schedule: Q04DX003 (ip), vehicle: saline with Tween-80): 93 % of control
T/C (dose: 200.0 mg/kg/injection, schedule: Q01DX009 (ip), vehicle: saline): 105 % of control
T/C (dose: 200.0 mg/kg/injection, schedule: Q04DX003 (ip), vehicle: saline with Tween-80): 94 % of control
T/C (dose: 400.0 mg/kg/injection, schedule: Q01DX009 (ip), vehicle: saline): 87 % of control
T/C (dose: 400.0 mg/kg/injection, schedule: Q04DX003 (ip), vehicle: saline with Tween-80): 93 % of control

CC(C)Cn1cnc2c(Sc3c([N+](=O)[O-])ncn3C)nc(N)nc21
T/C (dose: 6.0 mg/kg/injection, schedule: Q01DX015 (ip), vehicle: carboxymethylcellulose (CMC)): 104 % of control
T/C (dose: 12.0 mg/kg/injection, schedule: Q01DX015 (ip), vehicle: carboxymethylcellulose (CMC)): 111 % of control
T/C (dose: 25.0 mg/kg/injection, schedule: Q01DX015 (ip), vehicle: carboxymethylcellulose (CMC)): 117 % of control
T/C (dose: 50.0 mg/kg/injection, schedule: Q01DX001 (ip), vehicle: carboxymethylcellulose (CMC)): 114 % of control
T/C [1]: 117 % of control
T/C [2]: 119 % of control
T/C [3]: 162 % of control
T/C (dose: 600.0 mg/kg/injection, schedule: Q01DX001 (ip), vehicle: carboxymethylcellulose (CMC)): 170 % of control
